Results as given in patent US6906061B2, “Pharmaceutical agent containing Rho kinase inhibitor” (Mitsubishi Pharma Corporation, priority 1996, dated 2005).

What was measured:
mouse femoral bone = assay: Inhibition of bone resorption (in vitro), mouse femoral bone; conditions: 144 h, 6 days incubation of ICR mouse femoral bone
Procedure, shortened: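 Femurs from 3–6-week male ICR mice, marrow flushed, cultured 6 days in F12 with 10% FBS under 5% CO2 with test compound (DMSO-dissolved; DMSO-only controls). Calcium released into supernatant measured by o-cresolphthalein chelate method; inhibition calculated against untreated bone, n=4 per group.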

[1] = tested on: BALB/c spleen cells stimulated with C57BL/6 spleen cells; assay: Inhibition of mouse allogenic mixed lymphocyte reaction; assay type: cell-based; conditions: Mus musculus, Lymphocyte, 96 h; 4 days culture, MTT; read-out: Mouse allogenic MLR inhibitory activity IC50
Procedure: Inhibition of Mouse Allogenic Mixed Lymphocyte Reaction
A mouse allogenic mixed lymphocyte reaction (hereinafter to be referred to as mouse allogenic MLR) was performed by mixed culture (equal ratio) of the spleen cell of BALB/c mice as the reaction cell and the spleen cell of C57BL/6 mice treated with mitomycin C as stimulated cell.
The reaction cells were prepared by the following method. Spleen was removed from 5-6 week old BALB/c mice and treated with RPMI1640 medium (containing kanamycin sulfate (60 μg/ml), penicillin G potassium (100 units/ml), N-2-hydroxyethylpiperazine-N′-2-ethanesulfonate (10 mM), 0.1% sodium hydrogencarbonate and L-glutamin (2 mM)) supplemented with 5% heat inactivated fetal bovine serum (FBS) to give a single cell suspension of the spleen cell. After hemolysis treatment, the suspension was adjusted to10^7 cells/ml with RPMI1640 medium containing 10^−4 M 2-mercaptoethanol and 10% FBS and used as a reaction cell suspension.
The reaction cell suspension (50 μl) prepared by the above method, stimulated cell suspension (50 μl) and the test compound (100 μl) prepared using RPMI1640 medium containing 10% FBS were added to a 96 well plate and incubated at 37° C. under 5% CO2 gas, 95% air for 4 days.
A pigment assay using 3-(4,5-dimethylthiazol-2-yl)-2,5-diphenyltetrazolium bromide (MTT) was applied for the determination of lymphocyte transformation reaction.
After the completion of culture, the supernatant (100 μl) in each well was removed, and 5 mg/ml MTT solution (20 μl) was added to each well, which was followed by incubation at 37° C. for 4 hours. Then, a 0.01 N hydrochloric acid solution (100 μl) containing 10% sodium dodecyl sulfate was added and the mixture was incubated at 37° C. overnight. The resulting purple crystals of formazan was dissolved and absorbance at 550 nm was measured using a microplate absorption meter, which was used as the index of lymphocyte transformation reaction of the mouse allogenic MLR. The inhibition of mouse allogenic MLR was evaluated by calculating the inhibition percentage by the following formula The results are shown in Table 7.

[2] = tested on: thoractic aorta ring contracted with phenylephrine; assay: Vasodilating action on phenylephrine-contracted thoracic aorta rings; conditions: Oryctolagus cuniculus; rabbit aortic ring, phenylephrine 10^−6 M contraction; concentration for 50% relaxation; read-out: Vasorelaxing action
Procedure: Male rabbits (body weight 1.9-3.0 kg) were anesthetized with pentobarbital sodium and exsanguinated, whereafter thoractic aorta was removed. An about 2 mm width aortic ring samples were prepared and hung in a Magnus bath (40 ml) filled with Krebs-Henseleit solution (37° C., NaCl 117 mM; KCl 4.7 mM; CaCl2 2.5 mM; MgSO4 1.2 mM; NaHCO3 24.8 mM; KH2PO4 1.2 mM; glucose 11.0 mM) at a load of 2 g. The Magnus bath was constantly bubbled with a mixed gas (95% O2+5% CO2 gas). The tension of the preparation was measured with an isomeric transducer (TB-611T, Nippon Koden). The preparation was contracted with phenylephrine (10^−6 M) and, after the contraction was stabilized, the test compound was added accumulatively and relaxing action was observed.

[3] = tested on: Bovine Aorta Thoracia Rho Kinase; assay: Rho kinase inhibitory action (inhibition of bovine aorta thoracia Rho kinase); assay type: biochemical
Procedure: Rho Kinase Inhibitory Action (Inhibition of Bovine Aorta Thoracia Rho Kinase)
The Rho kinase was prepared from bovine aorta of thorax by partial purification as in the following. The artery was minced and homogenized with a 9-fold amount of 50 mM Tris-hydroxymethylaminomethane (Tris) (pH=7.4), 1 mM dithiothreitol, 1 mM EGTA, 1 mM EDTA, 100 μM p-amidinophenylmethylsulfonyl fluoride, 5 μM E-64, 5 μM leupeptine and 5 μM pepstatin A. The homogenate was centrifuged (10,000×g, 30 minutes) to give supernatant. The supernatant was adsorbed onto a hydroxyapatite column. The column was washed with 0.2M phosphate buffer (pH=6.8). The standard product of Rho kinase was eluted with 0.4M phosphate buffer (pH=6.8). The Rho kinase was assayed as follows.
A reaction mixture (total amount 50 μl) containing 50 mM Tris, 1 mM EDTA, 5 mM MgCl2, 50 μg/ml histone, 10 μM GTPγS, 100 μg/ml Rho, 2 μM [^32P]ATP, the Rho kinase (3 μl) prepared in the above and the test compound was reacted at 30° C. for 5 minutes. The reaction was terminated by the addition of 25% trichloroacetic acid (TCA) solution (1 ml) and the mixture was stood at 4° C. for 30 minutes. Then, the mixture was filtered through a membrane filter (HAWP type, Millipore), and the radioactivity of the filter was counted on a liquid scintillation counter. The inhibitory action of the test compound was calculated from the following formula based on the comparison of the radioactivity with the sample without the test compound (control).

[4] = tested on: normal human umberical vascular endothelial cells; assay: Inhibition of angiogenesis (lumen formation in vascular endothelial cells); assay type: cell-based; conditions: 18 hours, compared with the control, number rises with inhibition of lumen formation
Procedure: Inhibition of Angiogenesis
The inhibition of angiogenesis was evaluated by using the inhibition of lumen formation in vascular endothelial cell as an index. To be specific, normal human umberical vascular endothelial cells (KURABO […] LTD.) were suspended in E-GMUV medium at 5.5×10^4 cells/ml and 400 μl therefrom was added on matrigel plate (EHS sarcoma-derived reconstructed basement membrane, Collaborative Biomedical Products). Then, the test compound (1 mM solution, 4 μl) was added and the cells were incubated at 37° C. under 5% CO2 gas for 18 hours. After the completion of the incubation, the number of lumen per predetermined area was counted under a microscope. Inasmuch as the number of lumen increases by the inhibition of lumen formation, the test compound was evaluated by comparison of the number of lumen with the control.

Row | Compound | inhibition at 100 µM (mouse femoral bone) [%] | IC50 [1] [nM] | IC50 [2] [nM] | Inhibition (%) ([3]; test compound 10 μM) | Number of lumen (10 μM) [4] [%] | Inhibition (%) ([3]; test compound 1 μM)
1 | CC(N)[C@H]1CC[C@H](C(=O)Nc2ccncc2)CC1 (single isomer, unassigned; (+)) [Compound 80.2HCl.H2O, (+)-trans-4-(1-aminoethyl)-1-(4-pyridylcarbamoyl)cyclohexane] | 40.9 | 9600 | 700 | 100 | 174 | 
2 | CC(N)[C@H]1CC[C@H](C(=O)Nc2ccnc3[nH]ccc23)CC1 (single isomer, unassigned; (+)) [Compound 109.2HCl, (+)-trans-N-(1H-pyrrolo[2,3-b]pyridin-4-yl)-4-(1-aminoethyl)cyclohexanecarboxamide] | 42.6 | 1600 | 100 | 100 | 153 | 81
